Results on 30 compounds are retold here after ChEMBL document CHEMBL3813616, “Discovery of novel 7-azaindoles as PDK1 inhibitors” (Bioorg Med Chem Lett, 2016).

The IC50 is the concentration needed to halve the response being measured. As a reminder, the Papp A→B is how fast a substance crosses the layer from the apical side. As usually defined, the inhibition is the change of the read-out against control, counted positive when it falls. As usually defined, the solubility is how much of the substance goes into solution per volume. The low end stands for little dissolved substance, the high end for much dissolved substance.

Data set [1] has as its target T1, 3-phosphoinositide-dependent protein kinase 1 (Homo sapiens, UniProt O15530).
T1 sequence (O15530 whole entry): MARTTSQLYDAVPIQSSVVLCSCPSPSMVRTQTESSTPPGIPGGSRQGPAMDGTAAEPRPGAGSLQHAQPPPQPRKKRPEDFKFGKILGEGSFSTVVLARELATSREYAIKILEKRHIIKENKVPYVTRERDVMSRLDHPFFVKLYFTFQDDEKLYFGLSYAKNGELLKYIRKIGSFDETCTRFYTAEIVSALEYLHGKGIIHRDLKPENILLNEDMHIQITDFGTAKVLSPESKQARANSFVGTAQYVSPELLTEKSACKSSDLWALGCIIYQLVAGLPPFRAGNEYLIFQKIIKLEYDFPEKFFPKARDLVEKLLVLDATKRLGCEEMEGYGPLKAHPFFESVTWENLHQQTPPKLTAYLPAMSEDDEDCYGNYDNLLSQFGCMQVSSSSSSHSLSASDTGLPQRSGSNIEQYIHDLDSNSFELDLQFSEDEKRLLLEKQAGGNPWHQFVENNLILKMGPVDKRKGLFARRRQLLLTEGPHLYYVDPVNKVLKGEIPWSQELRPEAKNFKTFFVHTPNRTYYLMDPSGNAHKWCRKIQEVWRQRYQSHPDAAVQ
The data set can be described thus: Inhibition of human His6-tagged PDK1 using biotinylated PDKtide as substrate after 60 mins by topcount method.

The target in data set [2] is T1, 3-phosphoinositide-dependent protein kinase 1. The data set can be described thus: Inhibition of PDK1 in human PC3 cells assessed as reduction in AKT Thr308 phosphorylation after 45 mins. The format is cell-based, PC-3.
Data set [3] is described as follows: Intrinsic clearance in human liver microsomes. The note with it: read-out: CLH. The format is ADME. For orientation: Microsomes from liver hold many membrane-bound enzymes, among them those of drug oxidation.
A short description of data set [4]: Intrinsic clearance in mouse liver microsomes. The note with it: read-out: CLH. The format is ADME.
The nature of data set [5]: Permeability across apical to basolateral side in human Caco2 cells. The format is ADME, cell-based. The note with it: Caco-2. On the technique in general: Passage across Caco-2 layers is used to estimate intestinal permeability.
Data set [6] in a line: Efflux ratio of permeability from basolateral to apical over apical to basolateral side in human Caco2 cells. The format is ADME, cell-based. The note with it: Caco-2.
The target of data set [7] is T2, Phosphatidylinositol 4,5-bisphosphate 3-kinase catalytic subunit alpha isoform (Homo sapiens, UniProt P42336). The data set can be described thus: Inhibition of PI3K alpha (unknown origin).
T2 sequence (P42336 whole entry, canonical isoform): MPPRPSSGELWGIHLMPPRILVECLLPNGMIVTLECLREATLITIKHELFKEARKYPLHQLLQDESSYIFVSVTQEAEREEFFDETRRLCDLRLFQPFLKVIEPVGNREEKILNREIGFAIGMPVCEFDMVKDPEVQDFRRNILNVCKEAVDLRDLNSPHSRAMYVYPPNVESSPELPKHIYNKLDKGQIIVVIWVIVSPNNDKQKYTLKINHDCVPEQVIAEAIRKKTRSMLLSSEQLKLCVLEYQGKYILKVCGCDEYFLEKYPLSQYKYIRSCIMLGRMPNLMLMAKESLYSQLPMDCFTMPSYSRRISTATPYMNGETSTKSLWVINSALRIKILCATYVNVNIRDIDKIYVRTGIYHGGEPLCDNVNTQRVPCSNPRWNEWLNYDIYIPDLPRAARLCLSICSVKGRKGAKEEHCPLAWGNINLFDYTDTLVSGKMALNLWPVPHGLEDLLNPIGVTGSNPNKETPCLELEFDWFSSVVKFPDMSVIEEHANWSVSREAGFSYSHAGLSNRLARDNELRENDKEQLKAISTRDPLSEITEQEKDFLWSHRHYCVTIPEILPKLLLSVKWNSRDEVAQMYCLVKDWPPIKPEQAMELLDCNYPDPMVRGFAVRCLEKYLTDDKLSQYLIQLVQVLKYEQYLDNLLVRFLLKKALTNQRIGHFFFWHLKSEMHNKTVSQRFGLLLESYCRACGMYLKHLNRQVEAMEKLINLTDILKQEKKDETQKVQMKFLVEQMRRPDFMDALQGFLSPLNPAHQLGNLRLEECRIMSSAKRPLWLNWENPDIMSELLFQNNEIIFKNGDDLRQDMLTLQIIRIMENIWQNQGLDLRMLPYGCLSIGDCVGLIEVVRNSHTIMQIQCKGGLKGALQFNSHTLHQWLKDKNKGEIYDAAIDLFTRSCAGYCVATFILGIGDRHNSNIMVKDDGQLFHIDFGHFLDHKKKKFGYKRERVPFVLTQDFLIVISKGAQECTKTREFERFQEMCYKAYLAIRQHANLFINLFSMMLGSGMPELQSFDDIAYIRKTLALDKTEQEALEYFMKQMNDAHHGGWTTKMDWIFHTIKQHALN
Data set [8] has as its target Phosphatidylinositol 4,5-bisphosphate 3-kinase catalytic subunit beta isoform (Homo sapiens, UniProt P42338). The data set can be described thus: Inhibition of PI3K beta (unknown origin).
Data set [9] addresses Phosphatidylinositol 4,5-bisphosphate 3-kinase catalytic subunit gamma isoform (Homo sapiens, UniProt P48736). The data set is described as follows: Inhibition of PI3K gamma (unknown origin).
Data set [10] deals with T3, Phosphatidylinositol 4,5-bisphosphate 3-kinase catalytic subunit delta isoform (Homo sapiens, UniProt O00329).
T3 sequence (O00329 whole entry): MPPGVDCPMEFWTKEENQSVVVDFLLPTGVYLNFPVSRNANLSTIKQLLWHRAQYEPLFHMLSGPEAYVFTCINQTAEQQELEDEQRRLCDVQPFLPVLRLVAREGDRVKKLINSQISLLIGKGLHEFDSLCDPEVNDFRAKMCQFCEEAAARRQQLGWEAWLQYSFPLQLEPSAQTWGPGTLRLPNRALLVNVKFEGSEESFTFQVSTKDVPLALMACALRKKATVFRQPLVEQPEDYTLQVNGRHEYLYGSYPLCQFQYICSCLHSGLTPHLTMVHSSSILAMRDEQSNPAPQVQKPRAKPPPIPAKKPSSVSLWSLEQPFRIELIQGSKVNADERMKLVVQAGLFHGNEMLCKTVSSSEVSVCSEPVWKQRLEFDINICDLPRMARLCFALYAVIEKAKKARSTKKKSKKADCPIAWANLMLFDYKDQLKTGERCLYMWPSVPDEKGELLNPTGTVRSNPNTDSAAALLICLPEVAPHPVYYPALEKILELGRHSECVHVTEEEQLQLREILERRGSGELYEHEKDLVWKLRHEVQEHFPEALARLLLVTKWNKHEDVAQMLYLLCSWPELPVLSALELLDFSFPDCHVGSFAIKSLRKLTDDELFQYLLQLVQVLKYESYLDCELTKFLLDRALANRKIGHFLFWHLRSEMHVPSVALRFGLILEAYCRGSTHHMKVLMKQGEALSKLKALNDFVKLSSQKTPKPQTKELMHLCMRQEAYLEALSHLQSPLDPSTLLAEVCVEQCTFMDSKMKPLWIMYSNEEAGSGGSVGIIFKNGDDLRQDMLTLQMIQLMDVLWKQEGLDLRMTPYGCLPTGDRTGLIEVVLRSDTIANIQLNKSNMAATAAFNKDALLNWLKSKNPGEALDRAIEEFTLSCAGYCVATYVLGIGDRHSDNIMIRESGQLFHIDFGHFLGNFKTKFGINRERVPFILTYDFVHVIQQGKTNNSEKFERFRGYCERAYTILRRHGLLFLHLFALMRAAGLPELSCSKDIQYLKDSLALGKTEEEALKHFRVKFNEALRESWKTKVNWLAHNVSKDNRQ
The data set can be described thus: Inhibition of PI3K delta (unknown origin).

For data set [11], the species on record is Homo sapiens. The data set is described as follows: Selectivity ratio of IC50 for PI3K alpha (unknown origin) to IC50 for human His6-tagged PDK1.
For data set [12], the target named is T1, 3-phosphoinositide-dependent protein kinase 1. The data set is described as follows: Inhibition of human PDK1.
The target of data set [13] is T2, Phosphatidylinositol 4,5-bisphosphate 3-kinase catalytic subunit alpha isoform. The data set is described as follows: Inhibition of PI3K alpha (unknown origin) at 10 uM.
Data set [14] is described as follows: Solubility of the compound. The format is physicochemical.

Each structure is given as a SMILES string. ≈ marks a conversion by molar mass, not a printed value.

Phosphatidylinositol 4,5-bisphosphate 3-kinase catalytic subunit beta isoform, sequence (P42338 whole entry, canonical isoform): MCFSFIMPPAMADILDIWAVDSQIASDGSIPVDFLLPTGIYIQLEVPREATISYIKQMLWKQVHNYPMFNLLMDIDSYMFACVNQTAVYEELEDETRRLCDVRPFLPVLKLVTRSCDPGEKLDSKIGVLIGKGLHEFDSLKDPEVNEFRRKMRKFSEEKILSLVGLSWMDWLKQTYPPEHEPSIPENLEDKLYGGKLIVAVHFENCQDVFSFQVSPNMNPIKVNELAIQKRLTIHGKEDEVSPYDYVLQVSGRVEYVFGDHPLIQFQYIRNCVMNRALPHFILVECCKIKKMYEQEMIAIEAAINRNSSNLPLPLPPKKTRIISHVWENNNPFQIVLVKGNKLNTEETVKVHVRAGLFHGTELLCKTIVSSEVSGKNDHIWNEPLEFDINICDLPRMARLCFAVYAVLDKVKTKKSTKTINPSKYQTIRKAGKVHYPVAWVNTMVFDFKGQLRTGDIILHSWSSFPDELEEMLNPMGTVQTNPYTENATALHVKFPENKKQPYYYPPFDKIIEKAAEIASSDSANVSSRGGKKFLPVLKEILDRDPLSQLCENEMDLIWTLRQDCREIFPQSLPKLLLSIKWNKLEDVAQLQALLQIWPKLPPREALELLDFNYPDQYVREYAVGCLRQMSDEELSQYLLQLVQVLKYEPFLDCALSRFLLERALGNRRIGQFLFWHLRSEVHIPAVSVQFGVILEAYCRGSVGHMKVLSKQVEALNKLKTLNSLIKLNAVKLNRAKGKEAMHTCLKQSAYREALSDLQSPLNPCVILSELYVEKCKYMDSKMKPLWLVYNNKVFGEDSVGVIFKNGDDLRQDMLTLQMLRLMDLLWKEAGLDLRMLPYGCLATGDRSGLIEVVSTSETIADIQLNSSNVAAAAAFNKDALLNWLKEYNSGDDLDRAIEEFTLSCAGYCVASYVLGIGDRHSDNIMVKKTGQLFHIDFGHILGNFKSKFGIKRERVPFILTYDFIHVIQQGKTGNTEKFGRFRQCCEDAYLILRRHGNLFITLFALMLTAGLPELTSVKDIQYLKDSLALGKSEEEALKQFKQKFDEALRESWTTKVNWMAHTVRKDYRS
Phosphatidylinositol 4,5-bisphosphate 3-kinase catalytic subunit gamma isoform, sequence (P48736 whole entry, canonical isoform): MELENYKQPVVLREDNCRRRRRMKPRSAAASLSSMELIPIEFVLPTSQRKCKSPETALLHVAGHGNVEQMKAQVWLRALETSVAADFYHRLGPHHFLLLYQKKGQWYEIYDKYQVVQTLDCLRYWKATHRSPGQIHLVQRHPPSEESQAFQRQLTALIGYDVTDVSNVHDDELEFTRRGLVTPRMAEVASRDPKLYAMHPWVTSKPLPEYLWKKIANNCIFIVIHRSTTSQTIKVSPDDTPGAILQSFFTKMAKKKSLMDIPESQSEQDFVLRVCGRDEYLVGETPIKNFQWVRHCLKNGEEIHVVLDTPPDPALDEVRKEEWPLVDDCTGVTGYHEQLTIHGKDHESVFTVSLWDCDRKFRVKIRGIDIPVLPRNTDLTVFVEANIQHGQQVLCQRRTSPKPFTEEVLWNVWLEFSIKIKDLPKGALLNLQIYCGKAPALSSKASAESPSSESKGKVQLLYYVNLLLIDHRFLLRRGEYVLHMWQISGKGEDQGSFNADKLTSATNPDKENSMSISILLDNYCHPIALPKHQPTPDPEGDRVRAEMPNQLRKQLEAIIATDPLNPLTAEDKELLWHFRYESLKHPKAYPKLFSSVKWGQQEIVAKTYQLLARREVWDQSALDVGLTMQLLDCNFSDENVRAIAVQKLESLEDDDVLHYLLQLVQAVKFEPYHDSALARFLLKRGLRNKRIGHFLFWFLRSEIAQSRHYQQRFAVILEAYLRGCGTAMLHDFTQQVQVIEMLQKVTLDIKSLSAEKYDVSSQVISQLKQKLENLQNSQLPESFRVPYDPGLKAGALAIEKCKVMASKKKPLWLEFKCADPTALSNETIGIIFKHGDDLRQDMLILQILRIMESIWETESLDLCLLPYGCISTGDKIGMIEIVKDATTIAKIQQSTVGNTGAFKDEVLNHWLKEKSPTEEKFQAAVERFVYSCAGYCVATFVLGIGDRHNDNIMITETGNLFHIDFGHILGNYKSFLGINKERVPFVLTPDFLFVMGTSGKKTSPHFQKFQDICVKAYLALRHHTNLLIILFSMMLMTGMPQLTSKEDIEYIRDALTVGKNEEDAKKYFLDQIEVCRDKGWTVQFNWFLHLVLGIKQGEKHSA

In the case of `CCc1cc(-c2c[nH]c3ncc(-c4cn[nH]c4)cc23)nc(N)n1`, the 50% inhibitory concentration (IC50) was 0.013 µM in data set [1]; 5.4 µM in data set [2]; 6 µM in data set [7]; greater than 30 µM in data set [8]; 7 µM in data set [9]; greater than 30 µM in data set [10]. The microsomal CLint was 52 µL/min/mg in [3] and greater than 70 µL/min/mg in data set [4]. In [5], this compound displayed an apparent permeability from apical to basolateral (Papp A→B) of 0.89 ×10⁻⁶ cm/s. For the same compound, the Ratio in data set [6] turned out to be 54.8. The Ratio IC50 in data set [11] came out at 460.

As to `CCc1cc(-c2c[nH]c3nccc(Cl)c23)nc(N)n1`, the IC50 in data set [1] was greater than 10 µM.

In turn, `Nc1nccc(-c2c[nH]c3cccc(O)c23)n1` [MERIDIANIN A] yielded a concentration for half-maximal inhibition (IC50) in data set [12] of 5.4 µM.

In the case of `CCc1cc(-c2c[nH]c3ncc(-c4cnn(C)c4)cc23)nc(N)n1`, the concentration for half-maximal inhibition (IC50) was 0.085 µM in data set [1], 11 µM in [2], greater than 10 µM in data set [9] and greater than 10 µM in [10]. Besides, the microsomal CLint in data set [3] is greater than 55 µL/min/mg; in data set [4], 71 µL/min/mg. In data set [5], this compound came in with a Papp A→B of 5.4 ×10⁻⁶ cm/s. Further, the Ratio in [6] was 7.9. For the same compound, the inhibition in data set [13] is 78%.

As for `CCc1cc(-c2c[nH]c3ncc(-c4cccnc4)cc23)nc(N)n1`, the IC50 in data set [1] was 0.5 µM; in data set [2], greater than 30 µM.

Regarding `Nc1ncc(-c2ccccc2)cc1-c1nc2ccccc2[nH]1`, in data set [1], the IC50 turned out to be 1.1 µM.

With `CNc1nccc(-c2cn(CCOC)c3ncccc23)n1`, the IC50 in data set [1] was greater than 10 µM.

`Nc1nccc(-c2c[nH]c3ccc(Br)cc23)n1` [MERIDIANIN C] returned a half-maximal inhibitory concentration (IC50) in data set [1] of 12 µM.

As for `CCc1cc(-c2c[nH]c3ncc(-c4ccc(N)nc4)cc23)nc(N)n1`, the half-inhibitory concentration (IC50) is 0.17 µM in data set [1]; 21 µM in [2]; greater than 10 µM in data set [7]; greater than 30 µM in data set [8]; greater than 10 µM in [9]; greater than 10 µM in data set [10].

For `CCc1cc(-c2c[nH]c3ncccc23)nc(N)n1`, the figures for the IC50 in data set [1] and in [2] were 1.2 µM and greater than 30 µM, respectively.

In [1], `COc1ccc2[nH]c(-c3cc[nH]n3)nc2c1` registered an IC50 of 93 µM.

As for `CCc1cc(-c2c[nH]c3ncc(-c4ccccc4)cc23)nc(N)n1`, the IC50 in data set [1] is 3.5 µM; in [2], greater than 30 µM.

Turning to `CCc1cc(-c2c(C)[nH]c3ncccc23)nc(N)n1`, the IC50 in data set [1] was greater than 10 µM.

On to `NCCCCc1cc(-c2c[nH]c3ncccc23)nc(N)n1`, for which the 50% inhibitory concentration (IC50) in data set [1] is 1 µM; in data set [2] it was greater than 30 µM.

Regarding `CCc1cc(-c2c[nH]c3ncc(-c4ccco4)cc23)nc(N)n1`, the half-maximal inhibitory concentration (IC50) was 0.12 µM in data set [1]; 28 µM in data set [2]; greater than 10 µM in [7]; greater than 10 µM in data set [9]; greater than 10 µM in data set [10].

With `CCCc1cc(-c2c[nH]c3ncccc23)nc(N)n1`, the results for the half-inhibitory concentration (IC50) in data set [1] and in [2] were 1.8 µM and greater than 30 µM, respectively.

`CCc1cc(-c2c[nH]c3ncccc23)ncn1`: the IC50 in data set [1] was greater than 10 µM; in data set [2] it was greater than 30 µM.

Regarding `Cc1nccc(-c2c[nH]c3ncccc23)n1`, in [1], the IC50 was greater than 10 µM.

Consider `CCc1cc(-c2c[nH]c3ncc(Br)cc23)nc(N)n1`, for which the IC50 was 0.48 µM in [1] and greater than 30 µM in data set [2].

As for `CCc1cc(-c2c[nH]c3ncc(-c4cnn(CCN(C)C)c4)cc23)nc(N)n1`, the IC50 in data set [1] is 0.082 µM; in [2], 14 µM; in [7], 3.9 µM; in data set [8], greater than 30 µM; in data set [9], greater than 10 µM; in data set [10] it was greater than 10 µM. In addition, the values for the microsomal CLint in [3] and in data set [4] were less than 10 µL/min/mg and 39 µL/min/mg, respectively. The same compound yielded an apparent permeability from apical to basolateral (Papp A→B) in data set [5] of 7.3 ×10⁻⁶ cm/s. Also, the Ratio in data set [6] is 2.3. Besides, the Ratio IC50 in data set [11] turned out to be 48.

Take `CCc1cc(-c2c[nH]c3ncc(-c4ccn[nH]4)cc23)nc(N)n1`: the IC50 in data set [1] was 0.26 µM; in data set [2], 26 µM; in data set [7], greater than 10 µM; in data set [8] it was greater than 30 µM; in data set [9] it was greater than 10 µM; in data set [10], greater than 10 µM.

For the compound `CCCCCc1cc(-c2c[nH]c3ncccc23)nc(N)n1`, the half-maximal inhibitory concentration (IC50) in data set [1] was 2.2 µM; in data set [2] it was greater than 30 µM.

On to `Nc1ncc(Br)c(-c2c[nH]c3ncccc23)n1`, for which the IC50 in data set [1] was greater than 10 µM.

With `CCc1cc(-c2c[nH]c3ncc(-c4ccncc4)cc23)nc(N)n1`, the IC50 in data set [1] is 0.45 µM; in [2], greater than 30 µM.

In the case of `CCc1cc(-c2c[nH]c3ncc(-c4ccnn4C)cc23)nc(N)n1`, the values for the IC50 in data set [1] and in data set [2] were 2.4 µM and greater than 30 µM, respectively.

Compound `Oc1ccc(-c2n[nH]c3cc(O)ccc23)cc1` had an IC50 in data set [1] of 6.7 µM.

In turn, `Nc1nc2c3ccccc3nc(-c3ccccc3)n2n1` returned a half-maximal inhibitory concentration (IC50) in [1] of 60 µM.

On to `CCc1cc(-c2c[nH]c3ncc(-c4cnn(CC(C)C)c4)cc23)nc(N)n1`, for which the IC50 in data set [1] was 0.11 µM; in data set [2], 9.6 µM; in data set [7], 4.7 µM; in data set [8], greater than 30 µM; in data set [9], greater than 10 µM; in [10] it was greater than 10 µM. In addition, the microsomal CLint in data set [3] was greater than 55 µL/min/mg; in data set [4] it was 67 µL/min/mg. The same compound gave an apical-to-basolateral permeability (Papp A→B) in data set [5] of 27 ×10⁻⁶ cm/s. In addition, the Ratio in data set [6] is 0.6. The Ratio IC50 in data set [11] came to 42.

As for `NCCCc1cc(-c2c[nH]c3ncccc23)nc(N)n1`, the half-maximal inhibitory concentration (IC50) in data set [1] was 0.39 µM; in data set [2] it was greater than 30 µM. This compound showed a solubility in data set [14] of 12 µg/mL (≈ 44.7 µM).

As for `CCc1cc(-c2c[nH]c3ncc(-c4c(C)nn(C)c4C)cc23)nc(N)n1`, the IC50 is 2.7 µM in data set [1] and greater than 30 µM in [2].
